Experimental findings from article PMC4745926, “Absorption, Metabolism, and Excretion by Freely Moving Rats of 3,4-DHPEA-EDA and Related Polyphenols from Olive Fruits (Olea europaea)” (Journal of Nutrition and Metabolism, 2016) are described below.

Values joined by “and” are separate entries in the source; they are usually repeats but may differ in a detail not shown here. Equal entries are not always repeated. “Also recorded” adds a separate entry of the source.

Data set [1] is described as follows: Urinary excretion after intravenous administration. It counts as in vivo, Wistar ST rats. How it is done:
(§1) SPF Wistar ST rats (6 weeks of age, male, 180 ± 20 g of body weight) were purchased from Japan SLC Inc. (Hamamatsu, Japan). The rats were housed in an air-conditioned room at 22 ± 2°C under cycles of 12 hours dark and 12 hours light and given free access to a commercial diet and water for a week. The rats were then fasted for over 16 hours before the experiments. The present study was approved by the Animal Care and Use Committee at Kagawa University, and the rat treatment conformed to the Rules of Animal Experiments at Kagawa University. 3,4-[…] (300 mg/kg body weight; 936.51 μmol/kg) dissolved in 50% polyethylene glycol aqueous solution was administered orally via a stomach tube to the portal vein cannulated rats. Blood samples (450 μL) were then collected using a heparinized syringe attached to the cannula before administration and 5, 15, 30, 60, 120, and 240 min after administration. Urine was also collected before administration and 0 to 2 h and 2 to 4 h after administration. For intravenous administration, 3,4-[…] (10 mg/kg; 31.22 μmol/kg) was injected into the jugular vein, and blood (450 μL) was collected using a heparinized syringe before administration and 5, 15, 30, 60, 120, and 240 min after administration via the jugular vein cannula. The blood (450 μL) collected was immediately cooled on ice and centrifuged at 15,000 rpm for 5 min at 4°C to obtain over 200 μL plasma. Urine was also collected before administration and 0 to 2 h and 2 to 4 h after administration. Bile was collected via the bile duct cannula before administration and 0 to 2 h and 2 to 4 h after intravenous administration. The collected plasma, urine, and bile were immediately stored in an ice box until further analyses. HT (oral administration: 100 mg/kg; 648.66 μmol/kg, intravenous administration: 10 mg/kg; 64.87 μmol/kg) and Ole (oral administration: 300 mg/kg; 555.02 μmol/kg, intravenous administration: 10 mg/kg; 18.50 μmol/kg) were investigated using the same method as described above. Metabolites were deconjugated by using β-glucuronidase (500 U) and sulfatase (50 U) in 50 μL 625 mM MOPS (pH 6.8), which was added to 200 μL of plasma, urine, or bile. The mixture was incubated for 45 min at 37°C and subjected to extraction using QuEChERS [33]. […] Shimadzu, Kyoto, Japan) equipped with a Shim-pack XR-ODS column (3.0 mm I.D. × 100 mm; Shimadzu, Kyoto, Japan) at 40°C with a mobile phase of 0.5% TFA-1% acetonitrile aqueous solution (A) and 0.5% TFA-75% acetonitrile aqueous solution (B). The elution conditions are described as follows: isocratic elution of 0% B was maintained for 4.0 min; linear gradient 0 to 4% B, 4.0-4.5 min; linear gradient 4.0-16.0% B, 4.5-16.0 min; linear gradient 16.0-100% B, 16.0-25.0 min; isocratic elution of 100% B, 25.0-26.0 min; and linear gradient 100 to 0% B, 26.0-26.1 min, with a flow rate of 0.5 mL/min. Injection volume was 50 μL. All eluted peaks were detected at 279 nm with a diode array detector (SPD-M20A; Shimadzu, Kyoto, Japan).

Data set [2] can be described thus: Urinary excretion after oral administration. In kind it is in vivo, Wistar ST rats. As for the experimental part: as §1
Data set [3] can be described thus: Recovery of 3,4-DHPEA-EDA spiked into rat plasma. It counts as in vitro ADME. As to conditions: recovery yield check. As for the experimental part:
After oral administration of 3,4-DHPEA-EDA, HT (27.7 AUC0→4 h-i.g./Dosei.g.), HVAOH (4.2 AUC0→4 h-i.g./Dosei.g.), and HVA (4.5 AUC0→4 h-i.g./Dosei.g.) were detected in the portal plasma. Low absorption of 3,4-DHPEA-EDA is reported in some papers. […] Plasma components such as serum albumin, serum lipoprotein, and glycoprotein may have bound 3,4-DHPEA-EDA and hindered its detection. 3,4-DHPEA-EDA as a dialdehyde form might quickly bind to proteins bearing primary amines such as globulins, albumins, and other functional proteins in blood plasma, as malondialdehyde does. […] To our knowledge, this is the first report of the formation of HVAOH from 3,4-DHPEA-EDA.

The mark [4] stands for this setting: after oral administration, within 240 min.

As to `C/C=C1/[C@H](O[C@@H]2O[C@H](CO)[C@@H](O)[C@H](O)[C@H]2O)OC=C(C(=O)OC)[C@H]1CC(=O)OCCc1ccc(O)c(O)c1` [Oleuropein, reference compound], the “Detection of intact Ole and metabolites in urine” value in data set [1] (listed as Ole) is given as “not detected at all”. In data set [2] (after oral administration), the Ole in urine is 0.07 % of dose.
With `CC=C(C=O)C(CC=O)CC(=O)OCCc1ccc(O)c(O)c1` (stereo not drawn) [3,4-DHPEA-EDA, 3,4-dihydroxyphenylethyl elenolate dialdehydic form], in data set [3], the “Recovery of 3,4-DHPEA-EDA spiked into rat plasma” value was “could not be detected”. For the same molecule, in data set [1], the “Detection of intact 3,4-DHPEA-EDA in urine” value is on record as “not observed; also recorded: not detected”, the HT in urine was 6.3 % of dose, the HVA in urine was 2.6 % of dose and the HVAOH in urine is 4.6 % of dose. For the same molecule, the “Total metabolites observed in the urine” value in data set [1] turned out to be 13%. For the same molecule, the “Detection of 3,4-DHPEA-EDA in urine” value in data set [2] (after oral administration) was “not observed; also recorded: not detected”. In addition, in data set [2] (setting [4]), the HT in urine is reported as 0.51 % of dose; the HVA in urine was 0.38 % of dose and 0.39 % of dose; the HVAOH in urine result was “not detected”. Besides, the “total excretion ratio including metabolites (3,4-DHPEA-EDA : HT : Ole)” value in data set [2] (urine after oral administration, Ole = 1) stood at 12.9. Further, in data set [2] (within 240 min after oral administration), the “Total metabolites (including intact compound) excreted in the urine” value stood at 0.9%.
On to `OCCc1ccc(O)c(O)c1` [Hydroxytyrosol, 2-(3,4-dihydroxyphenyl) ethyl alcohol, reference compound], for which the HT in urine in data set [2] (setting [4]) is reported as 1.14 % of dose.
